Experimental data published in publication PMC5318888, “SAMHD1 enhances nucleoside-analogue efficacy against HIV-1 in myeloid cells” (Scientific Reports, 2017).
Like-named read-outs stand apart in the source and are kept apart here.

Experiments:
Type in all cases: cell-based
[1] = Cytotoxicity, live cells by flow cytometry, Jurkat cells; conditions: human
Description: (§1) H9, Jurkat and undifferentiated U937 and THP-1 (PMA^−) cells (6 × 10^5 cells/mL) were treated with increasing concentrations of nucleoside analogues (0–200 μM; except CFB, 0–1.6 μM) and incubated at 37 °C in 5% CO2 for 48 h. Medium was then replaced and cells were further incubated for 72 h. Non-dividing U937 and THP-1 (PMA^+) cells (6 × 10^5 cells/mL) were differentiated by addition of 100 nM phorbol-12-myristate-13-acetate (PMA^+) for 48 h and then treated with increasing concentrations of nucleoside analogues as described above. The percentage of live cells was determined by flow cytometry using Live/Dead fixable blue-fluorescent dyes (Invitrogen) and a Fortessa X20 analyser (BD Biosciences). Data were analysed using the FlowJo software suite.
(§2) The cytotoxic concentration of nucleoside analogue that inhibits cell viability by 50% (CC50) and the effective concentration of nucleoside analogue that inhibits infection of cells by 50% (EC50) were calculated for each independent experiment by non-linear regression using GraphPad Prism v6.00 for Windows (GraphPad Software, San Diego, CA). Non-ambiguous values were subjected to a replicate test to calculate confidence intervals of 95% (95% CI). CC50 and EC50 values were determined for at least two independent experiments for each nucleoside analogue and a selectivity index (SI) also calculated, (SI = CC50/EC50). EC50 values for each replicate were used to perform an unpaired two-tailed t-test to determine significant differences between U937 cells expressing SAMHD1 wt or HD206-7AA mutant and THP-1 cells expressing Vpx or untransduced cells. P values of <0.005 were considered statistically significant.

[2] = Cytotoxicity, live cells by flow cytometry, H9 cells; conditions: human
Description: as §1, §2

[3] = system: HIV-1-GFP; assay: microbe, parasite or virus in culture
Description: H9 and Jurkat cells (6 × 10^5 cells/mL) were treated with increasing concentrations of nucleoside analogues (0–200 μM; except CFB, 0–1.6 μM) and incubated for 4 h at 37 °C in 5% CO2. Cells were then infected with HIV-1-GFP by spinoculation at 800 × g for 90 min in the presence of 1 μg/mL polybrene, and further incubated at 37 °C in 5% CO2 for 72 h. Undifferentiated U937 and THP-1 (PMA^−) cells (6 × 10^5 cells/mL) were treated with increasing concentrations of nucleoside analogues (0–200 μM; except CFB, 0–1.6 μM) and incubated at 37 °C in 5% CO2 for 48 h. Cells were then infected with HIV-1-GFP by spinoculation at 800 × g for 90 min in the presence of 1 μg/mL polybrene, and further incubated at 37 °C in 5% CO2 for 72 h. Non-dividing U937 and THP-1 (PMA^+) cells (6 × 10^5 cells/mL) were differentiated by addition of 100 nM PMA (PMA^+) for 48 h and treated with increasing concentrations of nucleoside analogues as described above. Cells were then infected with HIV-1-GFP in the presence of 1 μg/mL polybrene and further incubated at 37 °C in 5% CO2 for 72 h. The percentage of GFP^+cells was determined by one-colour flow cytometry using a Fortessa X20 analyser (BD Biosciences) and the data analysed using the FlowJo software suite.
Non-ambiguous values were subjected to a replicate test to calculate confidence intervals of 95% (95% CI). CC50 and EC50 values were determined for at least two independent experiments for each nucleoside analogue and a selectivity index (SI) also calculated, (SI = CC50/EC50). EC50 values for each replicate were used to perform an unpaired two-tailed t-test to determine significant differences between U937 cells expressing SAMHD1 wt or HD206-7AA mutant and THP-1 cells expressing Vpx or untransduced cells. P values of <0.005 were considered statistically significant.

[4] = system: THP-1 cells; assay: Cytotoxicity, live cells by flow cytometry, THP-1 cells (PMA−/PMA+); conditions: human, 48 h
Description: as §1, §2

[5] = as above; conditions: human
Description: as §1, §2

[6] = in vitro; conditions: human
Description: as §1, §2

[7] = Human immunodeficiency virus 1, THP-1, read-out: EC50 [95% CI], THP1 PMA+
[8] = Human immunodeficiency virus 1, THP-1, read-out: EC50 [95% CI], THP1 PMA−
[9] = Human immunodeficiency virus 1, U-937, read-out: EC50 [95% CI], U937 PMA+
[10] = Human immunodeficiency virus 1, U-937, read-out: EC50 [95% CI], U937 PMA−

| SMILES | CC50 at 48 h [1] [µM] | CC50 at 48 h [2] [µM] | EC50 [3, 7] [µM] | EC50 [3, 8] [µM] | EC50 [3, 9] [µM] | EC50 [3, 10] [µM] | SI, selectivity index CC50/EC50 ([3]; THP-1 PMA+) | SI, selectivity index CC50/EC50 ([3]; U937 PMA+) | CC50 [4] [µM] | CC50 at 48 h [5] [µM] | CC50 at 48 h ([1]; Jurkat cells, read-out: CC50) [µM] | CC50 at 48 h ([2]; H9 cells, read-out: CC50) [µM] | SI, selectivity index CC50/EC50 ([3]; THP-1 PMA−) | SI, selectivity index CC50/EC50 ([3]; U937 PMA−) | CC50 at 48 h ([5]; THP-1 PMA+, read-out: CC50) [µM] | CC50 at 48 h ([5]; THP-1 PMA−, read-out: CC50) [µM] | CC50 at 48 h ([5]; PMA-differentiated, non-dividing THP-1 cells (PMA+), THP-1 PMA+, read-out: CC50) [µM] | CC50 at 48 h ([5]; undifferentiated THP-1 cells (PMA−), THP-1 PMA−, read-out: CC50) [µM] | CC50 at 48 h [6] [µM] | fold increase of anti-HIV-1 activity in PMA+ over PMA− cells ([3]; THP-1) [fold] |
| --- | --- | --- | --- | --- | --- | --- | --- | --- | --- | --- | --- | --- | --- | --- | --- | --- | --- | --- | --- | --- |
| Nc1nc2c(ncn2COCCO)c(=O)[nH]1 [ACV, Acycloguanosine] | > 200 | > 200 | 0.657 | > 200 | 52.2 | > 200 | > 304 | > 4 | > 200 | > 200 | – | – | – | – | – | – | – | – | – | – |
| Nc1nc(O)c2ncn(COC(CO)CO)c2n1 [GCV, 2′-Nor-2′-deoxyguanosine] | > 200 | > 200 | 0.367 | > 200 | > 200 | > 200 | > 545 | – | > 200 | > 200 | – | – | – | – | – | – | – | – | – | – |
| Cc1nnc(C(=O)NC(C)(C)c2nc(C(=O)NCc3ccc(F)cc3)c(O)c(=O)n2C)o1 [RAL, Raltegravir] | – | – | 0.037 | 0.044 | 0.063 | 0.013 | > 5405 | > 3175 | – | – | > 200 | > 200 | > 4545 | > 15385 | > 200 | > 200 | – | – | – | – |
| Cc1ccnc2c1NC(=O)c1cccnc1N2C1CC1 [NVP, Nevirapine] | – | – | 0.219 | 0.369 | 0.118 | 0.505 | > 913 | > 1695 | – | – | > 200 | > 200 | > 542 | > 396 | – | – | > 200 | > 200 | – | – |
| Cc1cn([C@H]2C=C[C@@H](CO)O2)c(=O)[nH]c1=O [d4T, 2′,3′-didehydro-2′,3′-dideoxythymidine] | > 200 | > 200 | 3.95 | 6.21 | 7.04 | 6.55 | > 51 | > 28 | > 200 | > 200 | – | – | > 32 | > 31 | – | – | – | – | > 200 | 2 |
